System: NTS gene
Experiment: NTS transcript RT-PCR in HBEC after hormonal treatment
Type: cell-based, human
Details: 1 μM ICI 182780 added concomitantly to 10 nM estradiol, 48 h
Experimental: A) Left, one μg of total RNA from HBEC or whole gland were reverse-transcribed and a PCR experiment specific for NTS was performed. Right, one μg of total RNA from HBEC cells (control, treated with 10 nM estradiol (E2) with or without 1 μM ICI 182780) was reverse-transcribed. A PCR experiment was performed using specific primers for NTS and GAPDH.
The protocols for total RNA extraction, reverse-transcription reaction (RT), and PCR are documented in Souaze et al (Souaze F, Rostene W, Forgez P (1997) J. Biol. Chem. 272:10087-10094). RT was performed on 1 μg of total RNA using a specific NTSR1 primer (5′-[…]-3′ SEQ ID NO:3) or 50 pmol of oligo dT and oligo dN. The PCR amplification was performed on a 1:5 v/v of the RT reaction using 25 pmol of each primer 5′-[…]-3′ SEQ ID NO:4 and 5′-[…]-3′ SEQ ID NO:5 for NTSR1, and 5′-[…]-3′ SEQ ID NO:6 and 5′-[…]-3′ SEQ ID NO:7 for NTS, and 1 unit of Taq polymerase (Applied Biosystems, Courtaboeuf, France). The amplification profile consisted of denaturation at 94° C. for 30 s, annealing at 57° C. for 45 s, and extension at 72° C. for 45 s. The PCR cycle were preceded by denaturation at 95° C. for 15 min and were followed by a final extension at 72° C. for 7 min.
HBEC were synchronized for 40 h in Ham F10 phenol red free medium containing 20 μM lovastatin. Synchronization was stopped by adding 2 mM mevalonate to the hormone-containing medium. […]

C[C@]12CC[C@@H]3c4ccc(O)cc4C[C@@H](CCCCCCCCC[S+]([O-])CCCC(F)(F)C(F)(F)F)[C@H]3[C@@H]1CC[C@@H]2O (stereo partly shown) [ICI 182780]
effect on the estradiol-induced enhancement of NTS transcripts: abolished

Source: US8586043B2, “Methods for treating breast cancer with inhibitors of neurotensin activation of NTSR1” (INSERM ( Institut National de la Sante et de la Recherche …, priority 2009, dated 2013)
